Results: PubChem BioAssay (NCI)
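Interpolation was linear, between the two tested concentrations surrounding the appropriate level; five concentrations were tested over 48 hours in 96-well plates. GI50: concentration for 50% inhibition of growth. Definition used: TGI = concentration required for complete inhibition of growth.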

What was measured:
Assay in all cases: inhibition of tumour cell growth, NCI panel, 48 h
IGROV1 ovarian = test system: IGROV1 ovarian
MDA-MB-231 breast = test system: MDA-MB-231 breast
UO-31 renal = test system: UO-31 renal
NCI-H522 lung = test system: NCI-H522 lung
ACHN renal = test system: ACHN renal
RPMI-8226 leukemia = test system: RPMI-8226 leukemia
SK-OV-3 ovarian = test system: SK-OV-3 ovarian
HL-60(TB) leukemia = test system: HL-60(TB) leukemia
A498 renal = test system: A498 renal
HCT-116 colon = test system: HCT-116 colon
HOP-92 NSCLC = test system: HOP-92 NSCLC
MALME-3M melanoma = test system: MALME-3M melanoma
SF-295 CNS = test system: SF-295 CNS
SK-MEL-2 melanoma = test system: SK-MEL-2 melanoma
M14 melanoma = test system: M14 melanoma
NCI-H23 lung = test system: NCI-H23 lung
BT-549 breast = test system: BT-549 breast
DU-145 prostate = test system: DU-145 prostate
HCC-2998 colon = test system: HCC-2998 colon
OVCAR-8 ovarian = test system: OVCAR-8 ovarian
SW-620 colon = test system: SW-620 colon
CAKI-1 renal = test system: CAKI-1 renal
KM12 colon = test system: KM12 colon
HS 578T breast = test system: HS 578T breast
T-47D breast = test system: T-47D breast
COLO 205 colon = test system: COLO 205 colon
K-562 leukemia = test system: K-562 leukemia
SK-MEL-28 melanoma = test system: SK-MEL-28 melanoma
HT29 colon = test system: HT29 colon
OVCAR-3 ovarian = test system: OVCAR-3 ovarian
786-0 renal = test system: 786-0 renal
LOX IMVI melanoma = test system: LOX IMVI melanoma
SF-539 CNS = test system: SF-539 CNS
PC-3 prostate = test system: PC-3 prostate
NCI-H226 lung = test system: NCI-H226 lung
UACC-62 melanoma = test system: UACC-62 melanoma
SN12C renal = test system: SN12C renal
A549 NSCLC = test system: A549 NSCLC
RXF 393 renal = test system: RXF 393 renal
TK-10 renal = test system: TK-10 renal
SNB-75 CNS = test system: SNB-75 CNS
NCI/ADR-RES ovarian = test system: NCI/ADR-RES ovarian
SNB-19 CNS = test system: SNB-19 CNS
HCT-15 colon = test system: HCT-15 colon
OVCAR-5 ovarian = test system: OVCAR-5 ovarian
MCF7 breast = test system: MCF7 breast
SF-268 CNS = test system: SF-268 CNS
CCRF-CEM leukemia = test system: CCRF-CEM leukemia
EKVX NSCLC = test system: EKVX NSCLC
MDA-MB-435 = test system: MDA-MB-435
UACC-257 melanoma = test system: UACC-257 melanoma
SK-MEL-5 melanoma = test system: SK-MEL-5 melanoma
OVCAR-4 ovarian = test system: OVCAR-4 ovarian
SR leukemia = test system: SR leukemia
NCI-H460 lung = test system: NCI-H460 lung
U251 CNS = test system: U251 CNS
HOP-62 NSCLC = test system: HOP-62 NSCLC
MOLT-4 leukemia = test system: MOLT-4 leukemia

CC1=C(CCC=NNC(N)=O)C2=C(C)C3(CC3)[C@@](C)(O)C(=O)C2=C1
GI50 (IGROV1 ovarian): 248 nM
TGI (IGROV1 ovarian): 1270 nM
GI50 (MDA-MB-231 breast): 412 nM
TGI (MDA-MB-231 breast): 2000 nM
GI50 (UO-31 renal): 160 nM
TGI (UO-31 renal): 373 nM
GI50 (NCI-H522 lung): 515 nM
TGI (NCI-H522 lung): 1960 nM
GI50 (ACHN renal): 250 nM
TGI (ACHN renal): 695 nM
GI50 (RPMI-8226 leukemia): 5580 nM
TGI (RPMI-8226 leukemia): 32600 nM
GI50 (SK-OV-3 ovarian): 246 nM
TGI (SK-OV-3 ovarian): 666 nM
GI50 (HL-60(TB) leukemia): 274 nM
TGI (HL-60(TB) leukemia): 1770 nM
GI50 (A498 renal): 317 nM
TGI (A498 renal): 902 nM
GI50 (HCT-116 colon): 272 nM
TGI (HCT-116 colon): 2480 nM
GI50 (HOP-92 NSCLC): 238 nM
TGI (HOP-92 NSCLC): 702 nM
GI50 (MALME-3M melanoma): 316 nM
TGI (MALME-3M melanoma): 913 nM
GI50 (SF-295 CNS): 289 nM
TGI (SF-295 CNS): 1150 nM
GI50 (SK-MEL-2 melanoma): 520 nM
TGI (SK-MEL-2 melanoma): 1030 nM
GI50 (M14 melanoma): 196 nM
TGI (M14 melanoma): 449 nM
GI50 (NCI-H23 lung): 174 nM
TGI (NCI-H23 lung): 743 nM
GI50 (BT-549 breast): 226 nM
TGI (BT-549 breast): 695 nM
GI50 (DU-145 prostate): 120 nM
TGI (DU-145 prostate): 5030 nM
GI50 (HCC-2998 colon): 350 nM
TGI (HCC-2998 colon): 1150 nM
GI50 (OVCAR-8 ovarian): 238 nM
TGI (OVCAR-8 ovarian): 926 nM
GI50 (SW-620 colon): 5790 nM
TGI (SW-620 colon): 19600 nM
GI50 (CAKI-1 renal): 281 nM
TGI (CAKI-1 renal): 2800 nM
GI50 (KM12 colon): 1640 nM
TGI (KM12 colon): 5380 nM
GI50 (HS 578T breast): 1860 nM
TGI (HS 578T breast): 6280 nM
GI50 (T-47D breast): 245 nM
TGI (T-47D breast): 1480 nM
GI50 (COLO 205 colon): 230 nM
TGI (COLO 205 colon): 647 nM
GI50 (K-562 leukemia): 3430 nM
TGI (K-562 leukemia): 17800 nM
GI50 (SK-MEL-28 melanoma): 700 nM
TGI (SK-MEL-28 melanoma): 2150 nM
GI50 (HT29 colon): 351 nM
TGI (HT29 colon): 1900 nM
GI50 (OVCAR-3 ovarian): 415 nM
TGI (OVCAR-3 ovarian): 3250 nM
GI50 (786-0 renal): 232 nM
TGI (786-0 renal): 623 nM
GI50 (LOX IMVI melanoma): 457 nM
TGI (LOX IMVI melanoma): 2110 nM
GI50 (SF-539 CNS): 225 nM
TGI (SF-539 CNS): 614 nM
GI50 (PC-3 prostate): 528 nM
TGI (PC-3 prostate): 5240 nM
GI50 (NCI-H226 lung): 421 nM
TGI (NCI-H226 lung): 3810 nM
GI50 (UACC-62 melanoma): 488 nM
TGI (UACC-62 melanoma): 1310 nM
GI50 (SN12C renal): 369 nM
TGI (SN12C renal): 2500 nM
GI50 (A549 NSCLC): 281 nM
TGI (A549 NSCLC): 1350 nM
GI50 (RXF 393 renal): 145 nM
TGI (RXF 393 renal): 306 nM
GI50 (TK-10 renal): 318 nM
TGI (TK-10 renal): 1610 nM
GI50 (SNB-75 CNS): 253 nM
TGI (SNB-75 CNS): 748 nM
GI50 (NCI/ADR-RES ovarian): 420 nM
TGI (NCI/ADR-RES ovarian): 4580 nM
GI50 (SNB-19 CNS): 717 nM
TGI (SNB-19 CNS): 7860 nM
GI50 (HCT-15 colon): 281 nM
TGI (HCT-15 colon): 1320 nM
GI50 (OVCAR-5 ovarian): 325 nM
TGI (OVCAR-5 ovarian): 1420 nM
GI50 (MCF7 breast): 426 nM
TGI (MCF7 breast): 12100 nM
GI50 (SF-268 CNS): 318 nM
TGI (SF-268 CNS): 4570 nM
GI50 (CCRF-CEM leukemia): 3930 nM
TGI (CCRF-CEM leukemia): 26200 nM
GI50 (EKVX NSCLC): 1440 nM
TGI (EKVX NSCLC): 6160 nM
GI50 (MDA-MB-435): 1320 nM
TGI (MDA-MB-435): 3250 nM
GI50 (UACC-257 melanoma): 538 nM
TGI (UACC-257 melanoma): 2130 nM
GI50 (SK-MEL-5 melanoma): 231 nM
TGI (SK-MEL-5 melanoma): 617 nM
GI50 (OVCAR-4 ovarian): 439 nM
TGI (OVCAR-4 ovarian): 1700 nM
GI50 (SR leukemia): 2580 nM
TGI (SR leukemia): 61800 nM
GI50 (NCI-H460 lung): 159 nM
TGI (NCI-H460 lung): 3740 nM
GI50 (U251 CNS): 440 nM
TGI (U251 CNS): 4190 nM
GI50 (HOP-62 NSCLC): 234 nM
TGI (HOP-62 NSCLC): 753 nM
GI50 (MOLT-4 leukemia): 2790 nM
TGI (MOLT-4 leukemia): 20900 nM
